Measured values published in ChEMBL document CHEMBL5331093, “Identification of "dual-site"-binding diarylpyrimidines targeting both NNIBP and the NNRTI adjacent site of the HIV-1 reverse transcriptase” (Eur J Med Chem, 2023).
Converted amounts (≈) assume the structure as drawn.

Tests used:
[1] = test system: Human immunodeficiency virus 1; assay: Anti-HIV activity against NNRTI-resistant HIV-1 harboring RT L100I mutant infected in human MT4 cells assessed as inhibition of virus-induced cytopathic effect incubated for 5 days by MTT assay; format: functional, organism-based; settings: Human immunodeficiency virus 1, MT4, 120 h
[2] = Resistance factor, ratio of EC50 for anti-HIV activity against NNRTI-resistant HIV-1 RES056 harboring RT K103N/Y181C double mutant infected in human MT4 cells to EC50 for anti-HIV activity against wild type HIV-1 IIIB infected in human MT4 cells; format: functional
[3] = test system: Human immunodeficiency virus 1; assay: Anti-HIV activity against NNRTI-resistant HIV-1 harboring RT E138K mutant infected in human MT4 cells assessed as inhibition of virus-induced cytopathic effect incubated for 5 days by MTT assay; format: functional, organism-based; settings: Human immunodeficiency virus 1, MT4, 120 h
[4] = test system: Human immunodeficiency virus 1; assay: Anti-HIV activity against NNRTI-resistant HIV-1 RES056 harboring RT K103N/Y181C double mutant infected in human MT4 cells assessed as inhibition of virus-induced cytopathic effect incubated for 5 days by MTT assay; format: functional, organism-based; settings: Human immunodeficiency virus 1, RES056, MT4, 120 h
[5] = test system: Human immunodeficiency virus 1; assay: Anti-HIV activity against NNRTI-resistant HIV-1 harboring RT K103N mutant infected in human MT4 cells assessed as inhibition of virus-induced cytopathic effect incubated for 5 days by MTT assay; format: functional, organism-based; settings: Human immunodeficiency virus 1, MT4, 120 h
[6] = test system: Human immunodeficiency virus 1; assay: Anti-HIV activity against wild type HIV-1 IIIB infected in human MT4 cells assessed as inhibition of virus-induced cytopathic effect incubated for 5 days by MTT assay; format: functional, organism-based; settings: Human immunodeficiency virus 1, IIIB, MT4, 120 h
[7] = test system: Human immunodeficiency virus 1; assay: Anti-HIV activity against NNRTI-resistant HIV-1 harboring RT Y188L mutant infected in human MT4 cells assessed as inhibition of virus-induced cytopathic effect incubated for 5 days by MTT assay; format: functional, organism-based; settings: Human immunodeficiency virus 1, MT4, 120 h
[8] = test system: Human immunodeficiency virus 1; assay: Anti-HIV activity against NNRTI-resistant HIV-1 harboring RT Y181C mutant infected in human MT4 cells assessed as inhibition of virus-induced cytopathic effect incubated for 5 days by MTT assay; format: functional, organism-based; settings: Human immunodeficiency virus 1, MT4, 120 h
[9] = Selectivity index, ratio of CC50 cytotoxicity against human MT4 cells to EC50 for anti-HIV activity against NNRTI-resistant HIV-1 RES056 harboring RT K103N/Y181C double mutant infected in human MT4 cells; format: toxicity, cell-based; settings: read-out: Ratio CC50/EC50
[10] = Selectivity index, ratio of CC50 cytotoxicity against human MT4 cells to EC50 for anti-HIV activity against wild type HIV-1 IIIB infected in human MT4 cells; format: toxicity, cell-based; settings: read-out: Ratio CC50/EC50
[11] = target: Human immunodeficiency virus type 1 reverse transcriptase (Human immunodeficiency virus 1, UniProt Q72547); assay: Inhibition of wild type recombinant HIV-1 reverse transcriptase assessed as reduction of biotin-dUTP incorporation into […] using ABTS as substrate incubated for 1 hrs by ELISA analysis
[12] = test system: Human immunodeficiency virus 1; assay: Anti-HIV activity against NNRTI-resistant HIV-1 harboring RT F227L/V106A double mutant infected in human MT4 cells assessed as inhibition of virus-induced cytopathic effect incubated for 5 days by MTT assay; format: functional, organism-based; settings: Human immunodeficiency virus 1, MT4, 120 h
[13] = Cytotoxicity against human MT4 cells assessed as reduction in cell viability incubated for 5 days by MTT assay; format: toxicity, cell-based; settings: time 5 day
[14] = Aqueous solubility of the compound at pH 2.0; format: physicochemical; settings: aqueous medium
[15] = Aqueous solubility of the compound at pH 7.0; format: physicochemical; settings: aqueous medium
[16] = Aqueous solubility of the compound at pH 7.4; format: physicochemical; settings: aqueous medium

| SMILES | EC50 [1] | Ratio EC50 [2] | EC50 [3] | EC50 [4] | EC50 [5] | EC50 [6] | EC50 [7] | EC50 [8] | selectivity ratio [9] | selectivity ratio [10] | IC50 [11] | EC50 [12] | CC50 at 120 h [13] | solubility [14] | solubility [15] | solubility [16] |
| --- | --- | --- | --- | --- | --- | --- | --- | --- | --- | --- | --- | --- | --- | --- | --- | --- |
| Cc1cc(C#N)cc(C)c1Oc1nc(Nc2ccc(C#N)cc2)ncc1SCC(=O)NCCCN1CCOCC1 | 0.0258 µM | 113 | 0.0381 µM | 0.386 µM | 0.00278 µM | 0.00341 µM | 0.0946 µM | 0.0309 µM | 61 | 6930 | 0.113 µM | 0.231 µM | – | – | – | – |
| C#CCNC(=O)/C=C/c1cnc(Nc2ccc(C#N)cc2)nc1Oc1c(C)cc(C#N)cc1C | – | 248 | – | – | – | – | – | – | 109 | 27100 | – | – | – | – | – | – |
| Cc1cc(C#N)cc(C)c1Oc1nc(Nc2ccc(C#N)cc2)ncc1C#CC(=O)NCCCN1CCOCC1 | – | 268 | – | 3.45 µM | – | 0.0129 µM | – | – | 17 | 4600 | – | – | 59.2 µM | – | – | – |
| Cc1cc(C#N)cc(C)c1Oc1nc(Nc2ccc(C#N)cc2)ncc1C#CC(=O)NCCOCCO | – | 78 | – | 0.818 µM | – | 0.0105 µM | – | – | 11 | 890 | – | – | 9.38 µM | – | – | – |
| C#CCNC(=O)C#Cc1cnc(Nc2ccc(C#N)cc2)nc1Oc1c(C)cc(C#N)cc1C | 0.125 µM | 132 | 0.0272 µM | 0.814 µM | 0.0152 µM | 0.00615 µM | 0.155 µM | 0.0872 µM | 9 | 1140 | – | 0.452 µM | 7.02 µM | – | – | – |
| COC(=O)C1CCC(NC(=O)C#Cc2cnc(Nc3ccc(C#N)cc3)nc2Oc2c(C)cc(C#N)cc2C)CC1 (centres undefined) | 0.131 µM | 104 | 0.0269 µM | 0.664 µM | 0.0204 µM | 0.00638 µM | 0.171 µM | 0.101 µM | 17 | 1800 | 0.185 µM | 3.21 µM | 11.5 µM | – | – | – |
| COCCNC(=O)C#Cc1cnc(Nc2ccc(C#N)cc2)nc1Oc1c(C)cc(C#N)cc1C | 0.00606 µM | 18 | 0.00627 µM | 0.0357 µM | 0.00236 µM | 0.00204 µM | 0.0143 µM | 0.0096 µM | 379 | 6650 | 0.019 µM | 0.0611 µM | 13.6 µM | 22.8 µg/mL (≈ 48.9 µM) | 8.27 µg/mL (≈ 17.7 µM) | 7.84 µg/mL (≈ 16.8 µM) |
| Cc1cc(C#N)cc(C)c1Oc1nc(Nc2ccc(C#N)cc2)ncc1C#CC(=O)NCCN1CCOCC1 | – | 957 | – | – | – | 0.12 µM | – | – | > 2 | > 2000 | – | – | > 240 µM | – | – | – |
| Cc1cc(C#N)cc(C)c1Oc1nc(Nc2ccc(C#N)cc2)ncc1C#CC(=O)NCCN1CCN(S(C)(=O)=O)CC1 | – | 70 | – | 0.774 µM | – | 0.0111 µM | – | – | – | 440 | – | – | 4.89 µM | – | – | – |
| CCOC(=O)C#Cc1cnc(Nc2ccc(C#N)cc2)nc1Oc1c(C)cc(C#N)cc1C | 0.0109 µM | 31 | 0.00972 µM | 0.133 µM | 0.0052 µM | 0.00435 µM | 0.0103 µM | 0.0136 µM | 260 | 7940 | 0.102 µM | 0.0159 µM | 34.5 µM | – | – | – |
| Cc1cc(C#N)cc(C)c1Oc1nc(Nc2ccc(C#N)cc2)ncc1C#CC(=O)NCCN1CCN(C(=O)OC(C)(C)C)CC1 | – | 219 | – | 4.01 µM | – | 0.0183 µM | – | – | 6 | 1220 | – | – | 22.4 µM | – | – | – |
| Cc1cc(C#N)cc(C)c1Oc1nc(Nc2ccc(C#N)cc2)ncc1C#CC(=O)NC1CC1 | 0.111 µM | 66 | 0.0149 µM | 0.313 µM | 0.0133 µM | 0.00478 µM | 0.236 µM | 0.0369 µM | 17 | 1110 | 0.052 µM | 0.376 µM | 5.3 µM | – | – | – |
| O=C1Nc2ccc(Cl)cc2[C@@](C#CC2CC2)(C(F)(F)F)O1 [EFAVIRENZ] | 0.0334 µM | – | 0.00352 µM | 0.136 µM | – | 0.00236 µM | 0.199 µM | 0.00478 µM | – | – | – | 0.154 µM | > 6.34 µM | – | – | – |
| Cc1cc(C#N)cc(C)c1Oc1nc(Nc2ccc(C#N)cc2)nc(N)c1Br [ETRAVIRINE] | 0.00572 µM | – | 0.00532 µM | 0.0234 µM | 0.00278 µM | – | – | – | – | – | – | 0.0168 µM | > 4.59 µM | – | – | – |
